In paper PMC4660440 (Scientific Reports, 2015):
Read-outs that look alike come from different tables or passages of the source.

Assays:
Assay type in all cases: cell-based
BGC-823 = assay: MTT cytotoxicity assay, BGC-823; conditions: Homo sapiens, BGC-823, drug exposure 48 h, mean ± SD (n = 3), read-out: Cytotoxic activity (IC50) BGC-823
Experimental: (§1) HeLa, BGC823, A-549, MCF-7 and HT-7702 cell lines were obtained from the ATCC. […] Tumor cells (3500–13,000) were seeded into 96-well microtest plates in 100 μL of culture medium per well, incubated for 48 h in the presence or absence of test compounds (8 different concentrations ranging from 100 to 0.01 μg/mL). For quantitative estimation of cytotoxicity, the (MTT) method was used, essentially performed as described previously. Briefly, cells were washed twice with PBS, fixed for 15 min in 1% glutaraldehyde solution, rinsed twice in PBS, and stained in 0.5% MTT solution for 4 h at 37 °C. […] The initial seeding densities varied among the cell lines to ensure a final absorbance reading in control (untreated) cultures within the range of 0.6–0.8 A492 units. Drug exposure was carried out for 2 days, and the IC50 value, i.e., the drug concentration that decreased the absorbance by 50%, was extrapolated from dose-response data. Each test was performed in triplicate, and the absorbance readings between the triplicates varied by no more than 10%.

A549 = assay: MTT cytotoxicity assay, A549; conditions: Homo sapiens, A549, drug exposure 48 h, mean ± SD (n = 3), read-out: Cytotoxic activity (IC50) A549
Experimental: as §1

HeLa = assay: MTT cytotoxicity assay, HeLa; conditions: drug exposure 48 h, mean ± SD (n = 3), read-out: Cytotoxic activity (IC50) HeLa
Experimental: as §1

[1] = MTT cytotoxicity assay, normal hepatic cell line HL-7702; conditions: HL-7702 normal hepatic cells, human normal hepatic immortal cell line, drug exposure 48 h, mean ± SD (n = 3), read-out: Cytotoxic activity (IC50) HL-7702
Experimental: as §1

MCF-7 = assay: MTT cytotoxicity assay, MCF-7; conditions: Homo sapiens, MCF7, drug exposure 48 h, mean ± SD (n = 3), read-out: Cytotoxic activity (IC50) MCF-7
Experimental: as §1

SMILES | IC50 (BGC-823) | IC50 (A549) | IC50 (HeLa; Homo sapiens, HeLa, 48 h) | IC50 at 48 h [1] | IC50 (MCF-7) | IC50 (HeLa)
COc1cc([C@@H]2c3cc4c(cc3[C@@H](Nc3ccccc3)[C@H]3COC(=O)[C@H]23)OCO4)cc(OC)c1OC [Compound 1] | 86.5 ± 4.21 µM | 43.2 ± 3.32 µM | 35.1 ± 1.03 µM | 41.8 ± 2.47 µM | – | –
COc1cc([C@@H]2c3cc4c(cc3[C@@H](Nc3ccccc3Br)[C@H]3COC(=O)[C@H]23)OCO4)cc(OC)c1O [2′] | 28.7 ± 1.04 µM | 44.9 ± 3.12 µM | 31.3 ± 1.43 µM | 47.4 ± 3.14 µM | 27.6 ± 0.91 µM | –
COc1cc([C@@H]2c3cc4c(cc3[C@@H](Nc3ccccc3Br)[C@H]3COC(=O)[C@H]23)OCO4)cc(OC)c1OC [Compound 2] | 17.9 ± 0.98 µM | 35.1 ± 2.37 µM | 26.6 ± 2.03 µM | 65.9 ± 2.37 µM | 29.1 ± 1.78 µM | –
COc1cc([C@@H]2c3cc4c(cc3[C@@H](Nc3cccc(Cl)c3)[C@H]3COC(=O)[C@H]23)OCO4)cc(OC)c1OC [Compound 6] | 9.32 ± 1.79 µM | 7.23 ± 0.95 µM | 5.43 ± 0.27 µM | 35.27 ± 0.21 µM | 6.57 ± 0.15 µM | –
COc1cc([C@@H]2c3cc4c(cc3[C@@H](Nc3ccccc3Cl)[C@H]3COC(=O)[C@H]23)OCO4)cc(OC)c1O [Compound 3′] | 23.1 ± 1.87 µM | 20.5 ± 0.42 µM | 23.4 ± 1.4 µM | 2.42 ± 0.71 µM | 37.5 ± 1.03 µM | –
COc1cc([C@@H]2c3cc4c(cc3[C@@H](Nc3ccc(Br)cc3)[C@H]3COC(=O)[C@H]23)OCO4)cc(OC)c1O [Compound 8′] | 62.1 ± 4.39 µM | 62.4 ± 3.66 µM | 21.07 ± 0.17 µM | 32.1 ± 0.96 µM | 28.9 ± 1.06 µM | –
COc1cc([C@@H]2c3cc4c(cc3[C@@H](Nc3ccccc3F)[C@H]3COC(=O)[C@H]23)OCO4)cc(OC)c1OC [Compound 4] | 22.7 ± 0.97 µM | 16.8 ± 1.22 µM | 22.1 ± 0.81 µM | 16 ± 0.66 µM | 16.1 ± 0.17 µM | –
COc1cccc(N[C@@H]2c3cc4c(cc3[C@@H](c3cc(OC)c(O)c(OC)c3)[C@H]3C(=O)OC[C@@H]32)OCO4)c1 [Compound 13′] | 13.8 ± 1.42 µM | 7.27 ± 2.38 µM | 12.3 ± 0.74 µM | 39.8 ± 2.73 µM | 11 ± 1.26 µM | –
COc1cc([C@@H]2c3cc4c(cc3[C@@H](Nc3cccc(Br)c3)[C@H]3COC(=O)[C@H]23)OCO4)cc(OC)c1OC [Compound 5] | 11.2 ± 3.61 µM | 13.4 ± 2.54 µM | 9.01 ± 0.11 µM | 13.58 ± 0.11 µM | 8.35 ± 0.42 µM | –
COc1cc([C@@H]2c3cc4c(cc3[C@@H](O[C@@H]3O[C@@H]5CO[C@@H](C)O[C@H]5[C@H](O)[C@H]3O)[C@H]3COC(=O)[C@H]23)OCO4)cc(OC)c1O [Etoposide, reference compound] | 25.5 ± 1.42 µM | 20.1 ± 1.95 µM | 59.4 ± 2.45 µM | 24.6 ± 3.82 µM | 25.3 ± 1.93 µM | 59.4 ± 2.45 µM
COc1cc([C@@H]2c3cc4c(cc3[C@@H](Nc3ccc(Cl)cc3)[C@H]3COC(=O)[C@H]23)OCO4)cc(OC)c1OC [Compound 9] | 23.1 ± 1.74 µM | 22.8 ± 1.08 µM | 21.32 ± 0.11 µM | 41.6 ± 3.11 µM | 19.3 ± 1.43 µM | –
COc1cccc(N[C@@H]2c3cc4c(cc3[C@@H](c3cc(OC)c(OC)c(OC)c3)[C@H]3C(=O)OC[C@@H]32)OCO4)c1 [Compound 13] | 12.7 ± 1.06 µM | 12.4 ± 0.38 µM | 11.6 ± 0.83 µM | 38.8 ± 2.37 µM | 13.8 ± 3.98 µM | –
COc1cc([C@@H]2c3cc4c(cc3[C@@H](Nc3ccccc3)[C@H]3COC(=O)[C@H]23)OCO4)cc(OC)c1O [Compound 1′] | 68.2 ± 4.13 µM | 42.5 ± 5.11 µM | 44.34 ± 0.34 µM | 53.4 ± 4.34 µM | 26.8 ± 0.67 µM | –
COc1ccc(Br)cc1N[C@@H]1c2cc3c(cc2[C@@H](c2cc(OC)c(O)c(OC)c2)[C@H]2C(=O)OC[C@@H]21)OCO3 [Compound 14′] | 22.2 ± 2.02 µM | 54.3 ± 4.49 µM | 6.47 ± 0.17 µM | 87.6 ± 5.04 µM | 4.21 ± 0.25 µM | –
COc1cc([C@@H]2c3cc4c(cc3[C@@H](Nc3ccc(F)cc3)[C@H]3COC(=O)[C@H]23)OCO4)cc(OC)c1O [Compound 10′] | 28.61 ± 0.06 µM | 17.7 ± 0.47 µM | 16.32 ± 0.09 µM | 29.6 ± 2.33 µM | 9.84 ± 0.73 µM | –
